Reference: patent US8410302B2, “Methoxyimino compounds and fungicide composition comprising same” (Kyung Nong Corporation, priority 2007, dated 2013)
Read-outs that look alike come from different tables or passages of the source.

Legend:
[1] = test system: Botrytis cinerae; assay: Fungicidal activity against cucumber gray mold rot (CGM) disease, control value; assay type: in vivo; details: 100 ppm; for pest or weed control at 100 ppm: Botrytis, read-out: CGM control value (C.V.)
[2] = test system: Rhizoctonia solani AG-1; assay: Fungicidal activity against rice sheath blight (RSB) disease, control value; details: for pest or weed control at 2 ppm / pest or weed control at 10 ppm / pest or weed control at 50 ppm / pest or weed control at 100 ppm: Rhizoctonia solani, AG1, in Oryza sativa, read-out: RSB control value (C.V.)
[3] = test system: Phytophthora infestans; assay: whole plant or invertebrate; assay type: in vivo; details: for TLB control value (C.V.): tomato late blight; for pest or weed control at 2 ppm / pest or weed control at 10 ppm / pest or weed control at 50 ppm / pest or weed control at 100 ppm: Phytophthora infestans, in Solanum lycopersicum, read-out: TLB control value (C.V.)
[4] = test system: Pyricularia oryzae Carvara KA301; assay: whole plant or invertebrate; assay type: in vivo; details: for RCB control value (C.V.): rice blast; for pest or weed control at 2 ppm / pest or weed control at 10 ppm / pest or weed control at 50 ppm / pest or weed control at 100 ppm: Pyricularia oryzae, read-out: RCB control value (C.V.)
[5] = test system: Puccinia recondita; assay: Fungicidal activity against wheat leaf rust (WLR) disease, control value; assay type: in vivo; details: for pest or weed control at 2 ppm / pest or weed control at 10 ppm / pest or weed control at 50 ppm / pest or weed control at 100 ppm: read-out: WLR control value (C.V.)
[6] = test system: Erysiphae graminis; assay: Fungicidal activity against barley powdery mildew (BPM) disease, control value; assay type: in vivo; details: for pest or weed control at 2 ppm / pest or weed control at 10 ppm / pest or weed control at 50 ppm / pest or weed control at 100 ppm: 168 h, read-out: BPM control value (C.V.)

Row | SMILES | pest or weed control at 100 ppm [1] [%] | pest or weed control at 2 ppm [2] [%] | pest or weed control at 10 ppm [2] [%] | pest or weed control at 50 ppm [2] [%] | pest or weed control at 100 ppm [2] [%] | pest or weed control at 2 ppm [3] [%] | pest or weed control at 10 ppm [3] [%] | pest or weed control at 50 ppm [3] [%] | pest or weed control at 100 ppm [3] [%] | pest or weed control at 2 ppm [4] [%] | pest or weed control at 10 ppm [4] [%] | pest or weed control at 50 ppm [4] [%] | pest or weed control at 100 ppm [4] [%] | pest or weed control at 2 ppm ([5]; Puccinia recondita, 2 ppm) [%] | pest or weed control at 10 ppm ([5]; Puccinia recondita, 10 ppm) [%] | pest or weed control at 50 ppm ([5]; Puccinia recondita, 50 ppm) [%] | pest or weed control at 100 ppm ([5]; Puccinia recondita, 100 ppm) [%] | pest or weed control at 2 ppm ([6]; 2 ppm) [%] | pest or weed control at 10 ppm ([6]; 10 ppm) [%] | pest or weed control at 50 ppm ([6]; 50 ppm) [%] | also measured
1 | CO/N=C(/C(=O)OC)c1ccccc1CON=C(C)c1cccc(C=C(Cl)Br)c1 [Example 35, methyl-(E)-2-[[[[[2-[3-(2-bromo-2-chlorovinyl)phenyl](1-methyl)methylidene]amino]oxy]methyl]phenyl]-2-methoxyiminoacetate] |  |  |  |  |  |  |  |  |  |  |  |  |  |  |  |  |  |  |  |  | CGM control value (C.V.) ([1]; cucumber gray mold rot): 50%; RSB control value (C.V.) ([2]; 100 ppm, rice sheath blight): 10%; TLB control value (C.V.) ([3]; 10 ppm): 10%; TLB control value (C.V.) ([3]; 50 ppm): 90%; TLB control value (C.V.) ([3]; 100 ppm): 100%; RCB control value (C.V.) ([4]; 2 ppm): 70%; RCB control value (C.V.) ([4]; 10 ppm): 100%; RCB control value (C.V.) ([4]; 50 ppm): 100%; RCB control value (C.V.) ([4]; 100 ppm): 100%; WLR control value (C.V.) ([5]; 2 ppm, wheat leaf rust): 100%; WLR control value (C.V.) ([5]; 10 ppm, wheat leaf rust): 100%; WLR control value (C.V.) ([5]; 50 ppm, wheat leaf rust): 100%; WLR control value (C.V.) ([5]; 100 ppm, wheat leaf rust): 100%; BPM control value (C.V.) ([6]; 2 ppm, barley powdery mildew): 15%; BPM control value (C.V.) ([6]; 10 ppm, barley powdery mildew): 60%; BPM control value (C.V.) ([6]; 50 ppm, barley powdery mildew): 93%; BPM control value (C.V.) ([6]; 100 ppm, barley powdery mildew): 95%
2 | CNC(=O)/C(=N/OC)c1ccccc1COc1ccc(F)cc1C=C(Br)Br [Example 80, (E)-2-(2-((2-(2,2-dibromovinyl)-4-fluorophenoxy)methyl)phenyl)-2-methoxyimino-N-methylacetamide] | 55 | 65 | 98 | 100 | 100 | 70 | 90 | 98 | 100 | 35 | 90 | 100 | 100 | 95 | 100 | 100 | 100 | 90 | 100 | 100 | pest or weed control at 100 ppm ([6]; 100 ppm): 100%
3 | CNC(=O)/C(=N/OC)c1ccccc1COc1ccc(C)cc1C=C(Br)Br [Example 70, (E)-2-(2-((2-(2,2-dibromovinyl)-4-methylphenoxy)methyl)phenyl)-2-methoxyimino-N-methylacetamide] | 50 | 100 | 100 | 100 | 100 |  | 35 | 90 | 100 | 100 | 100 | 100 | 100 | 100 | 100 | 100 | 100 | 100 | 100 | 100 | pest or weed control at 100 ppm ([6]; 100 ppm): 100%
4 | CO/N=C(/C(=O)OC)c1ccccc1COc1ccc(C=C(F)F)cc1 [Example 9, methyl-(E)-2-(2-((4-(2,2-difluorovinyl)phenoxy)methyl)phenyl)-2-methoxyiminoacetate] |  |  |  |  | 10 | 100 | 100 | 100 | 100 | 100 | 100 | 100 | 100 |  |  |  |  |  |  |  | pest or weed control at 100 ppm ([1]; cucumber gray mold rot): 50%; pest or weed control at 2 ppm ([5]; 2 ppm, wheat leaf rust): 100%; pest or weed control at 10 ppm ([5]; 10 ppm, wheat leaf rust): 100%; pest or weed control at 50 ppm ([5]; 50 ppm, wheat leaf rust): 100%; pest or weed control at 100 ppm ([5]; 100 ppm, wheat leaf rust): 100%; pest or weed control at 2 ppm ([6]; Hordeum vulgare, 2 ppm, barley powdery mildew): 15%; pest or weed control at 10 ppm ([6]; Hordeum vulgare, 10 ppm, barley powdery mildew): 60%; pest or weed control at 50 ppm ([6]; Hordeum vulgare, 50 ppm, barley powdery mildew): 93%; pest or weed control at 100 ppm ([6]; Hordeum vulgare, 100 ppm, barley powdery mildew): 100%
